Measured values published in patent US20060069132A1, “Azolecarboxamide herbicides” (priority 2004, published 2006).

What was measured:
[1] = system: morningglory; assay: Test B pre-/postemergence herbicide test; assay type: in vivo, Ipomoea coccinea; conditions: for Morningglory plant response rating: postemergence, scale 0 (no effect) to 100 (complete control)
Procedure, shortened: (§1)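 Herbicidal effect was judged by eye on a 0–100 scale after plants stood 13 to 15 days in the greenhouse following pre- or postemergence treatment with surfactant-containing formulations.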

[2] = system: corn; assay: Test B pre-/postemergence herbicide test; assay type: in vivo, Zea mays; conditions: for Corn plant response rating: postemergence, scale 0 (no effect) to 100 (complete control)
Procedure, shortened: (§2)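 Plants compared with untreated controls 13–15 days post-treatment and given a visual 0–100 injury score. Applications: preemergence to seeds; postemergence at 1- to 4-leaf (2–18 cm); paddy species flooded, 2-leaf stage. Vehicle non-phytotoxic, surfactant included.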

[3] = system: velvetleaf; assay: Test B pre-/postemergence herbicide test; assay type: in vivo, Abutilon theophrasti; conditions: for Velvetleaf plant response rating: postemergence, scale 0 (no effect) to 100 (complete control)
Procedure, shortened: as §2

[4] = system: small flower umbrella sedge; assay: Test B flooded paddy test; assay type: in vivo, Cyperus difformis; conditions: 1000 g ai/ha, scale 0 to 100 (0 no effect, 100 complete control)
Procedure, shortened: (§3)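 Treated at 2-leaf (paddy) or 1–4-leaf, 2–18 cm (postemergence); greenhouse 13–15 d; visual score vs control, 0 none to 100 complete control; dash = not tested.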

[5] = system: Surinam grass; assay: Test B pre-/postemergence herbicide test; assay type: in vivo, Urochloa decumbens; conditions: for Surinam Grass plant response rating: postemergence, scale 0 (no effect) to 100 (complete control)
Procedure, shortened: as §2

[6] = system: wild oat; assay: Test B postemergence herbicide test; assay type: in vivo, Avena fatua; conditions: postemergence, visual rating, scale 0 (no effect) to 100 (complete control)
Procedure, shortened: as §3

[7] = system: pigweed; assay: Test B pre-/postemergence herbicide test; assay type: in vivo, Amaranthus retroflexus; conditions: for Pigweed plant response rating: postemergence, scale 0 (no effect) to 100 (complete control)
Procedure, shortened: as §2

[8] = system: large crabgrass; assay: Test B pre-/postemergence herbicide test; assay type: in vivo, Digitaria sanguinalis; conditions: for Crabgrass, Large plant response rating: postemergence, scale 0 (no effect) to 100 (complete control)
Procedure, shortened: as §2

[9] = system: wheat; assay: Test B postemergence herbicide test; assay type: in vivo, Triticum aestivum; parameters: key to Wheat plant response rating: 0 = no effect, 100 = complete control; conditions: postemergence, visual rating, scale 0 (no effect) to 100 (complete control)
Procedure, shortened: as §3

[10] = system: barnyardgrass; assay: Test B pre-/postemergence herbicide test; assay type: in vivo, Echinochloa crus-galli; conditions: 0 = no effect, 100 = complete control, preemergence
Procedure, shortened: as §1

[11] = system: rice; assay: Test B flooded paddy test; assay type: in vivo, Oryza sativa; conditions: 1000 g ai/ha, scale 0 to 100 (0 no effect, 100 complete control)
Procedure, shortened: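 Formulated test chemicals went onto postemergence plants measuring 2 to 18 cm, at one to four leaves. For the paddy assay, species had reached two leaves. Scoring took place 13–15 days later by eye, relative to untreated plants, using 0 for no effect up to 100 for full control.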

[12] = system: cocklebur; assay: Test B pre-/postemergence herbicide test; assay type: in vivo, Xanthium strumarium; conditions: for Cocklebur plant response rating: postemergence, scale 0 (no effect) to 100 (complete control)
Procedure, shortened: as §1

[13] = system: lambsquarters; assay: Test B pre-/postemergence herbicide test; assay type: in vivo, Chenopodium album; conditions: for Lambsquarters plant response rating: postemergence, scale 0 (no effect) to 100 (complete control)
Procedure, shortened: as §2

[14] = system: ducksalad; assay: Test B flooded paddy test; assay type: in vivo, Heteranthera limosa; conditions: 1000 g ai/ha, scale 0 to 100 (0 no effect, 100 complete control)
Procedure, shortened: as §3

[15] = system: barnyardgrass; assay: Test B flooded paddy test; assay type: in vivo, Echinochloa crus-galli; conditions: 1000 g ai/ha, scale 0 to 100 (0 no effect, 100 complete control)
Procedure, shortened: as §3

[16] = system: blackgrass; assay: Test B postemergence herbicide test; assay type: in vivo, Alopecurus myosuroides; conditions: postemergence, visual rating, scale 0 (no effect) to 100 (complete control)
Procedure, shortened: as §3

[17] = system: rice; assay: Test B pre-/postemergence herbicide test; assay type: in vivo, Oryza sativa; conditions: 0 = no effect, 100 = complete control, preemergence
Procedure, shortened: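 Greenhouse pot assay with simultaneous preemergence (treated seed) and postemergence (2–18 cm seedlings) applications of surfactant-containing, non-phytotoxic solvent formulations. Response scored visually 13–15 days later on a 0–100 scale, 100 meaning complete control.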

[18] = system: giant foxtail; assay: Test B pre-/postemergence herbicide test; assay type: in vivo, Setaria faberi; conditions: for Foxtail, Giant plant response rating: postemergence, scale 0 (no effect) to 100 (complete control)
Procedure, shortened: as §2

[19] = 125 g ai/ha, 0 = no effect, 100 = complete control, preemergence
[20] = 500 g ai/ha, visual rating, 0 = no effect, 100 = complete control, preemergence

C=CCNC(=O)c1ccc(F)c(NC(=O)c2sc(CC)nc2C(C)(C)C)c1 [Compound 237]
30: Velvetleaf plant response rating (0 to 100 scale) [3, 19] | Velvetleaf plant response rating ([3]; 125 g ai/ha, visual rating) | Plant response rating, Surinam Grass [5, 20] | Pigweed plant response rating ([7]; 125 g ai/ha, visual rating) | Crabgrass, Large plant response rating (0 to 100 scale) [8, 19] | Plant response rating, Rice ([17]; 500 g ai/ha, visual rating)
70: Plant response rating, Pigweed [7, 20] | Lambsquarters plant response rating (0 to 100 scale) [13, 19] | Lambsquarters plant response rating ([13]; 500 g ai/ha, visual rating)
40: Corn plant response rating ([2]; 500 g ai/ha, visual rating) | Sedge, Umbrella plant response rating [4] | Cocklebur plant response rating ([12]; 500 g ai/ha, visual rating) | Plant response rating, Foxtail, Giant [18, 20]
20: Plant response rating, Morningglory [1, 20] | Morningglory plant response rating ([1]; 125 g ai/ha, visual rating) | Plant response rating, Corn [2, 20] | Corn plant response rating ([2]; 125 g ai/ha, visual rating) | Surinam Grass plant response rating ([5]; 125 g ai/ha, visual rating) | Surinam Grass plant response rating ([5]; 500 g ai/ha, visual rating) | Oat, Wild plant response rating ([6]; 500 g ai/ha) | Pigweed plant response rating (0 to 100 scale) [7, 19] | Crabgrass, Large plant response rating ([8]; 500 g ai/ha, visual rating) | Wheat plant response rating ([9]; 500 g ai/ha) | Barnyardgrass plant response rating (0 to 100 scale) ([10]; 125 g ai/ha) | Foxtail, Giant plant response rating ([18]; 500 g ai/ha, visual rating)
0: Morningglory plant response rating (0 to 100 scale) [1, 19] | Corn plant response rating (0 to 100 scale) [2, 19] | Oat, Wild plant response rating ([6]; 125 g ai/ha) | Cocklebur plant response rating (0 to 100 scale) [12, 19] | Plant response rating, Cocklebur [12, 20] | Blackgrass plant response rating ([16]; 125 g ai/ha) | Rice plant response rating (0 to 100 scale) ([17]; 125 g ai/ha) | Foxtail, Giant plant response rating (0 to 100 scale) [18, 19]
10: Surinam Grass plant response rating (0 to 100 scale) [5, 19] | Crabgrass, Large plant response rating ([8]; 125 g ai/ha, visual rating) | Wheat plant response rating ([9]; 125 g ai/ha) | Cocklebur plant response rating ([12]; 125 g ai/ha, visual rating) | Blackgrass plant response rating ([16]; 500 g ai/ha) | Foxtail, Giant plant response rating ([18]; 125 g ai/ha, visual rating)
80: Ducksalad plant response rating [14]
90: Plant response rating, Crabgrass, Large [8, 20] | Plant response rating, Lambsquarters [13, 20]
50: Velvetleaf plant response rating ([3]; 500 g ai/ha, visual rating) | Plant response rating, Barnyardgrass ([10]; 500 g ai/ha, visual rating) | Rice plant response rating [11]
60: Morningglory plant response rating ([1]; 500 g ai/ha, visual rating) | Plant response rating, Velvetleaf [3, 20] | Pigweed plant response rating ([7]; 500 g ai/ha, visual rating) | Lambsquarters plant response rating ([13]; 125 g ai/ha, visual rating) | Barnyardgrass plant response rating [15]
